From patent US8501770B2 (ArQule, Inc., priority 2009, dated 2013)

biological target: Full-length inactive AKT1 (Homo sapiens, UniProt P31749); test: Inactive Akt Alpha Screen Assay; format: biochemical; conditions: values not marked with "*"; read-out: Akt1 IC50, (AlphaScreen)
Procedure, shortened: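 AlphaScreen read-out (excitation 640 nm, emission 570 nm) after 90 min incubation at room temperature in the dark. Signal comes from crosstide phosphorylation by AKT1, which was activated by added PDK1, MAPKAPK2, ATP and lipid vesicles, captured via phospho-AKT substrate antibody and streptavidin beads.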

Full-length inactive AKT1, sequence (P31749 whole entry): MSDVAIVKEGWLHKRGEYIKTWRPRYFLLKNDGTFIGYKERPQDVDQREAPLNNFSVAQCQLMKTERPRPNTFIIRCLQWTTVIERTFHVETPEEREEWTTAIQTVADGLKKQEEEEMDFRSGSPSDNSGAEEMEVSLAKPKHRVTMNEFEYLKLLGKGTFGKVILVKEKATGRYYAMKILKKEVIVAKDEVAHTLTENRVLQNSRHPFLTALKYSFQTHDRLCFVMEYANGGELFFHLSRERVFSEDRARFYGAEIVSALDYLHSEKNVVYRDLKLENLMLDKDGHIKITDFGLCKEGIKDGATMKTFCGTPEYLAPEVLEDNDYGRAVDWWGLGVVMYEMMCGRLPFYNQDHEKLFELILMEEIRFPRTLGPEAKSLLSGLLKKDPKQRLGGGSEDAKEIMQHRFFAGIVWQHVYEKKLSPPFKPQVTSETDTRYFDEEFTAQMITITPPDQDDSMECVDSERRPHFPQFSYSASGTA

Structure (SMILES)	IC50 [nM]
Cc1ccc2nc(-c3cccnc3N)n(-c3ccc(CNC(=O)c4ccccc4)cc3)c2n1 [Example 246, N-(4-(2-(2-aminopyridin-3-yl)-5-methyl-3H-imidazo[4,5-b]pyridin-3-yl)benzyl)benzamide]	20
Cc1ccc2nc(-c3cccnc3N)n(-c3ccc(CNC(=O)c4cccc(F)c4)cc3)c2n1 [Example 247, N-(4-(2-(2-aminopyridin-3-yl)-5-methyl-3H-imidazo[4,5-b]pyridin-3-yl)benzyl)-3-fluorobenzamide]	16
CC(C)(C)OC(=O)NCc1ccc(-n2c(-c3cccnc3N)nc3cc(-c4cccnc4)cnc32)cc1 [Example 250, tert-butyl 4-(2-(2-aminopyridin-3-yl)-6-(pyridin-3-yl)-3H-imidazo[4,5-b]pyridin-3-yl)benzylcarbamate]	200
Nc1ncccc1-c1nc2ccc(-c3ccccc3)nc2n1-c1ccc(NC(=O)c2ccccc2)cc1 [Example 254, N-(4-(2-(2-aminopyridin-3-yl)-5-phenyl-3H-imidazo[4,5-b]pyridin-3-yl)phenyl)benzamide]	82
Nc1ncccc1-c1nc2ccc(-c3cccnc3)nc2n1-c1ccc(NC(=O)c2ccccc2)cc1 [Example 255, N-(4-(2-(2-aminopyridin-3-yl)-5-(pyridin-3-yl)-3H-imidazo[4,5-b]pyridin-3-yl)phenyl)benzamide]	12
CC(=O)Nc1cccc(NC(=O)Cc2ccc(-n3c(-c4cccnc4N)nc4ccc(-c5cccnc5)nc43)cc2)c1 [Example 258, N-(3-acetamidophenyl)-2-(4-(2-(2-aminopyridin-3-yl)-5-(pyridin-3-yl)-3H-imidazo[4,5-b]pyridin-3-yl)phenyl)acetamide]	17
Cc1ccc2cc(NC(=O)Cc3ccc(-n4c(-c5cccnc5N)nc5ccc(-c6cccnc6)nc54)cc3)ccc2n1 [Example 260, 2-(4-(2-(2-aminopyridin-3-yl)-5-(pyridin-3-yl)-3H-imidazo[4,5-b]pyridin-3-yl)phenyl)-N-(2-methylquinolin-6-yl)acetamide]	14
Cc1ccc2nc(-c3cccnc3N)n(-c3ccc(CNC(=O)c4cccn4C)cc3)c2n1 [Example 262, N-(4-(2-(2-aminopyridin-3-yl)-5-methyl-3H-imidazo[4,5-b]pyridin-3-yl)benzyl)-1-methyl-1H-pyrrole-2-carboxamide]	150
Cc1ccc2cc(C(=O)NCc3ccc(-n4c(-c5cccnc5N)nc5ccc(C)nc54)cc3)ccc2n1 [Example 263, N-(4-(2-(2-aminopyridin-3-yl)-5-methyl-3H-imidazo[4,5-b]pyridin-3-yl)benzyl)-2-methylquinoline-6-carboxamide]	110
Cc1cnc2c(c1)nc(-c1cccnc1N)n2-c1ccc(CNC(=O)c2cccc(F)c2F)cc1 [Example 265, N-(4-(2-(2-aminopyridin-3-yl)-6-methyl-3H-imidazo[4,5-b]pyridin-3-yl)benzyl)-2,3-difluorobenzamide]	93
Cc1cnc2c(c1)nc(-c1cccnc1N)n2-c1ccc(CNC(=O)c2ccc(Cl)c(Cl)c2)cc1 [Example 266, N-(4-(2-(2-aminopyridin-3-yl)-6-methyl-3H-imidazo[4,5-b]pyridin-3-yl)benzyl)-3,4-dichlorobenzamide]	230
Cc1cnc2c(c1)nc(-c1cccnc1N)n2-c1ccc(CNC(=O)c2cccnc2)cc1 [Example 268, N-(4-(2-(2-aminopyridin-3-yl)-6-methyl-3H-imidazo[4,5-b]pyridin-3-yl)benzyl)nicotinamide]	590
Cc1cnc2c(c1)nc(-c1cccnc1N)n2-c1ccc(CNC(=O)c2ccc(C)c(C)c2)cc1 [Example 269, N-(4-(2-(2-aminopyridin-3-yl)-6-methyl-3H-imidazo[4,5-b]pyridin-3-yl)benzyl)-3,4-dimethylbenzamide]	160
COC(=O)c1cccc(C(=O)NCc2ccc(-n3c(-c4cccnc4N)nc4cc(C)cnc43)cc2)c1 [Example 270, methyl 3-((4-(2-(2-aminopyridin-3-yl)-6-methyl-3H-imidazo[4,5-b]pyridin-3-yl)benzyl)carbamoyl)benzoate]	240
Cc1cnc2c(c1)nc(-c1cccnc1N)n2-c1ccc(CNC(=O)c2ccc(Cl)c(C)c2)cc1 [Example 272, N-(4-(2-(2-aminopyridin-3-yl)-6-methyl-3H-imidazo[4,5-b]pyridin-3-yl)benzyl)-4-chloro-3-methylbenzamide]	210
Cc1cnc2c(c1)nc(-c1cccnc1N)n2-c1ccc(CNC(=O)c2cccnc2F)cc1 [Example 274, N-(4-(2-(2-aminopyridin-3-yl)-6-methyl-3H-imidazo[4,5-b]pyridin-3-yl)benzyl)-2-fluoronicotinamide]	51000
Cc1cnc2c(c1)nc(-c1cccnc1N)n2-c1ccc(CNC(=O)c2ccc(Cl)cc2Cl)cc1 [Example 275, N-(4-(2-(2-aminopyridin-3-yl)-6-methyl-3H-imidazo[4,5-b]pyridin-3-yl)benzyl)-2,4-dichlorobenzamide]	110
Cc1cnc2c(c1)nc(-c1cccnc1N)n2-c1ccc(CNC(=O)c2cncs2)cc1 [Example 276, N-(4-(2-(2-aminopyridin-3-yl)-6-methyl-3H-imidazo[4,5-b]pyridin-3-yl)benzyl)thiazole-5-carboxamide]	780
Cc1cc(C)cc(C(=O)NCc2ccc(-n3c(-c4cccnc4N)nc4cc(C)cnc43)cc2)c1 [Example 277, N-(4-(2-(2-aminopyridin-3-yl)-6-methyl-3H-imidazo[4,5-b]pyridin-3-yl)benzyl)-3,5-dimethylbenzamide]	390
Cc1cnc2c(c1)nc(-c1cccnc1N)n2-c1ccc(CNC(=O)c2ccc(C)c(F)c2)cc1 [Example 278, N-(4-(2-(2-aminopyridin-3-yl)-6-methyl-3H-imidazo[4,5-b]pyridin-3-yl)benzyl)-3-fluoro-4-methylbenzamide]	120
Cc1cnc2c(c1)nc(-c1cccnc1N)n2-c1ccc(CNC(=O)c2ccc3ncccc3c2)cc1 [Example 279, N-(4-(2-(2-aminopyridin-3-yl)-6-methyl-3H-imidazo[4,5-b]pyridin-3-yl)benzyl)quinoline-6-carboxamide]	110
Cc1cnc2c(c1)nc(-c1cccnc1N)n2-c1ccc(CNC(=O)c2cccc(Cl)c2)cc1 [Example 282, N-(4-(2-(2-aminopyridin-3-yl)-6-methyl-3H-imidazo[4,5-b]pyridin-3-yl)benzyl)-3-chlorobenzamide]	140

Continued by falling IC50, values first:

IC50 [nM]	Structure (SMILES)
640	Cc1cnc2c(c1)nc(-c1cccnc1N)n2-c1ccc(CNC(=O)c2cncnc2)cc1 [Example 271, N-(4-(2-(2-aminopyridin-3-yl)-6-methyl-3H-imidazo[4,5-b]pyridin-3-yl)benzyl)pyrimidine-5-carboxamide]
590	Cc1cnc2c(c1)nc(-c1cccnc1N)n2-c1ccc(CNC(=O)c2cccc(C(F)(F)F)c2)cc1 [Example 267, N-(4-(2-(2-aminopyridin-3-yl)-6-methyl-3H-imidazo[4,5-b]pyridin-3-yl)benzyl)-3-(trifluoromethyl)benzamide]
530	CC(=O)Nc1ccc(-c2ccc3nc(-c4cccnc4N)n(-c4ccc(CNC(=O)OC(C)(C)C)cc4)c3n2)cc1 [Example 259, tert-butyl 4-(5-(4-acetamidophenyl)-2-(2-aminopyridin-3-yl)-3H-imidazo[4,5-b]pyridin-3-yl)benzylcarbamate]
220	Cc1cnc2c(c1)nc(-c1cccnc1N)n2-c1ccc(CNC(=O)C2CCCC2)cc1 [Example 273, N-(4-(2-(2-aminopyridin-3-yl)-6-methyl-3H-imidazo[4,5-b]pyridin-3-yl)benzyl)cyclopentanecarboxamide]
170	Cn1cccc1C(=O)NCc1ccc(-n2c(-c3cccnc3N)nc3cc(-c4cccnc4)cnc32)cc1 [Example 252, N-(4-(2-(2-aminopyridin-3-yl)-6-(pyridin-3-yl)-3H-imidazo[4,5-b]pyridin-3-yl)benzyl)-1-methyl-1H-pyrrole-2-carboxamide]
110	Cc1cnc2c(c1)nc(-c1cccnc1N)n2-c1ccc(CNC(=O)c2ccc(C)s2)cc1 [Example 280, N-(4-(2-(2-aminopyridin-3-yl)-6-methyl-3H-imidazo[4,5-b]pyridin-3-yl)benzyl)-5-methylthiophene-2-carboxamide]
71	Cc1cnc2c(c1)nc(-c1cccnc1N)n2-c1ccc(CNC(=O)c2ccccc2C(F)(F)F)cc1 [Example 281, N-(4-(2-(2-aminopyridin-3-yl)-6-methyl-3H-imidazo[4,5-b]pyridin-3-yl)benzyl)-2-(trifluoromethyl)benzamide]
46	Nc1ncccc1-c1nc2ccc(-c3cccnc3)nc2n1-c1ccc(CC(=O)Nc2ccccc2)cc1 [Example 257, 2-(4-(2-(2-aminopyridin-3-yl)-5-(pyridin-3-yl)-3H-imidazo[4,5-b]pyridin-3-yl)phenyl)-N-phenylacetamide]
28	CC(=O)Nc1cccc(C(=O)NCc2ccc(-n3c(-c4cccnc4N)nc4ccc(C)nc43)cc2)c1 [Example 248, 3-acetamido-N-(4-(2-(2-aminopyridin-3-yl)-5-methyl-3H-imidazo[4,5-b]pyridin-3-yl)benzyl)benzamide]
27	CC(=O)Nc1ccc(-c2ccc3nc(-c4cccnc4N)n(-c4ccc(NC(=O)c5ccccc5)cc4)c3n2)cc1 [Example 253, N-(4-(5-(4-acetamidophenyl)-2-(2-aminopyridin-3-yl)-3H-imidazo[4,5-b]pyridin-3-yl)phenyl)benzamide]
25	CC(=O)Nc1ccc(C(=O)NCc2ccc(-n3c(-c4cccnc4N)nc4ccc(C)nc43)cc2)cc1 [Example 249, 4-acetamido-N-(4-(2-(2-aminopyridin-3-yl)-5-methyl-3H-imidazo[4,5-b]pyridin-3-yl)benzyl)benzamide]
19	Nc1ncccc1-c1nc2ccc(-c3ccncc3)nc2n1-c1ccc(NC(=O)c2ccccc2)cc1 [Example 256, N-(4-(2-(2-aminopyridin-3-yl)-5-(pyridin-4-yl)-3H-imidazo[4,5-b]pyridin-3-yl)phenyl)benzamide]
